The text below walks through data of BindingDB's records for doi:10.1021/acs.jmedchem.8b00082 (Abbvie, 2018).

As usually defined, the EC50 is the concentration needed to bring the measured effect to its halfway point.

Assay [1] is described as follows: Inhibition of NS5A in HuH7 cell infected HCV genotype 1a H77 assessed as decrease in viral replication after 3 days by luciferase reporter gene assay. Background: In a reporter assay the amount or activity of a reporter protein is the signal.
Assay [2] can be described thus: Inhibition of NS5A in HuH7 cell infected HCV genotype 1b Con1 assessed as decrease in viral replication after 3 days by luciferase reporter gene assay.
Assay [3] in a line: Inhibition of HCV genotype 1b Con1 NS5A expressed in HuH7 cell infected HCV genotype 2b assessed as decrease in viral replication after 3 days by luciferase reporter gene assay.
A short description of assay [4]: Inhibition of HCV genotype 1b Con1 NS5A expressed in HuH7 cell infected HCV genotype 3a assessed as decrease in viral replication after 3 days by luciferase reporter gene assay.
The nature of assay [5]: Inhibition of HCV genotype 1b Con1 NS5A expressed in HuH7 cell infected HCV genotype 4a assessed as decrease in viral replication after 3 days by luciferase reporter gene assay.
A short description of assay [6]: Inhibition of HCV genotype 1b Con1 NS5A expressed in HuH7 cell infected HCV genotype 5a assessed as decrease in viral replication after 3 days by luciferase reporter gene assay.
Assay [7] in a line: Inhibition of HCV genotype 1b Con1 NS5A expressed in HuH7 cell infected HCV genotype 2a assessed as decrease in viral replication after 3 days by luciferase reporter gene assay.
Assay [8] is described as follows: Inhibition of HCV genotype 1b Con1 NS5A expressed in HuH7 cell infected HCV genotype 6a assessed as decrease in viral replication after 3 days by luciferase reporter gene assay.
Assay [9] can be described thus: Inhibition of NS5A in HuH7 cell infected HCV genotype 1a H77 assessed as decrease in viral replication after 3 days in presence of 40% human plasma by luciferase reporter gene assay.
The nature of assay [10]: Inhibition of NS5A in HuH7 cell infected HCV genotype 1b Con1 assessed as decrease in viral replication after 3 days in presence of 40% human plasma by luciferase reporter gene assay.

For `COC(=O)N[C@H](C(=O)N1CCC[C@H]1c1nc2cc(F)c([C@H]3CC[C@H](c4cc5[nH]c([C@@H]6CCCN6C(=O)[C@@H](NC(=O)OC)C(C)C)nc5cc4F)N3c3cc(F)c(N4CCC(c5ccc(F)cc5)CC4)c(F)c3)cc2[nH]1)C(C)C`, the EC50 in assay [1] amounted to 1 pM; in assay [2] it was 3 pM; in [3], 2 pM; in assay [4], 1 pM; in [5], 1 pM; in [6], 1 pM. In addition, the EC50 in assay [7] was found to be 3 pM; in assay [8] it was 3 pM; in assay [9], 70 pM; in [10], 172 pM.

As for `COC(=O)N[C@H](C(=O)N1CCC[C@H]1c1nc2ccc([C@H]3CC[C@H](c4ccc5nc([C@@H]6CCCN6C(=O)[C@@H](NC(=O)OC)C(C)C)[nH]c5c4)N3c3cc(F)c(N4CCC(c5ccccc5)CC4)c(F)c3)cc2[nH]1)C(C)C`, the EC50 is 2 pM in assay [1]; 6 pM in [2]; 6 pM in assay [3]; 6 pM in assay [4]; 4 pM in [5]; 3 pM in [6]. For the same compound, the EC50 in assay [7] came out at 8 pM; in assay [8] it was 8 pM; in assay [9], 76 pM; in assay [10] it was 183 pM.

As for `COC(=O)N[C@H](C(=O)N1CCC[C@H]1c1nc2cc(F)c([C@H]3CC[C@H](c4cc5[nH]c([C@@H]6CCCN6C(=O)[C@@H](NC(=O)OC)[C@@H](C)OC)nc5cc4F)N3c3cc(F)c(N4CCC(c5ccccc5)CC4)c(F)c3)cc2[nH]1)[C@@H](C)OC`, the concentration giving a half-maximal response (EC50) stood at 1 pM in [1]; 3 pM in assay [2]; 3 pM in assay [3]; 3 pM in [4]; 3 pM in [5]; 2 pM in assay [6]. Further, the EC50 came out at 3 pM in assay [7], 4 pM in assay [8], 43 pM in assay [9] and 138 pM in assay [10].

`COC(=O)N[C@H](C(=O)N1CCC[C@H]1c1nc2cc(F)c([C@H]3CC[C@H](c4cc5[nH]c([C@@H]6CCCN6C(=O)[C@@H](NC(=O)OC)C6CCOCC6)nc5cc4F)N3c3cc(F)c(N4CCC(c5ccccc5)CC4)c(F)c3)cc2[nH]1)C1CCOCC1`: the EC50 in assay [1] is 4 pM; in assay [2], 8 pM; in assay [3], 8 pM; in assay [4], 11 pM; in [5], 6 pM; in assay [6] it was 6 pM. The concentration giving a half-maximal response (EC50) in assay [7] amounted to 9 pM; in assay [8], 12 pM; in assay [9], 136 pM; in assay [10] it was 337 pM.

Take `COC(=O)N[C@H](C(=O)N1CCC[C@H]1c1nc2cc(F)c([C@H]3CC[C@H](c4cc5[nH]c([C@@H]6CCCN6C(=O)[C@@H](NC(=O)OC)C6CCOCC6)nc5cc4F)N3c3cc(F)c(N4CCC(c5ccc(F)cc5)CC4)c(F)c3)cc2[nH]1)C1CCOCC1`: the EC50 is 3 pM in assay [1]; 7 pM in assay [2]; 8 pM in assay [3]; 7 pM in [4]; 6 pM in [5]; 5 pM in assay [6]. Moreover, the concentration giving a half-maximal response (EC50) came to 8 pM in assay [7], 8 pM in assay [8], 220 pM in [9] and 522 pM in [10].

As to `COC(=O)N[C@H](C(=O)N1CCC[C@H]1c1nc2cc(F)c([C@H]3CC[C@H](c4cc5[nH]c([C@@H]6CCCN6C(=O)[C@@H](NC(=O)OC)C(C)C)nc5cc4F)N3c3cc(F)c(N4CCC(c5ccccc5)CC4)c(F)c3)cc2[nH]1)C(C)C`, the EC50 in [1] worked out at 2 pM; in assay [2], 6 pM; in assay [3] it was 3 pM; in [4] it was 4 pM; in [5], 4 pM; in [6], 2 pM. Besides, the EC50 in assay [7] was determined as 8 pM; in [8], 9 pM; in assay [9], 58 pM; in [10] it was 135 pM.

For `COC(=O)N[C@H](C(=O)N1CCC[C@H]1c1nc2cc([C@H]3CC[C@H](c4cc5nc([C@@H]6CCCN6C(=O)[C@@H](NC(=O)OC)[C@@H](C)OC)[nH]c5cc4F)N3c3cc(F)c(N4CCC(c5ccc(F)cc5)CC4)c(F)c3)c(F)cc2[nH]1)[C@@H](C)OC` [A-1325912.0], the EC50 in assay [1] was 1.8 pM; in assay [2] it was 4.3 pM; in [3] it was 1.9 pM; in assay [4] it was 2.1 pM; in assay [5], 1.9 pM; in [6], 1.4 pM. Moreover, the EC50 in assay [7] worked out at 2.3 pM; in [8], 2.8 pM; in [9], 64 pM; in assay [10] it was 200 pM.

On to `COC(=O)N[C@H](C(=O)N1CCC[C@H]1C(=O)Nc1ccc([C@@H]2CC[C@@H](c3ccc(NC(=O)[C@@H]4CCCN4C(=O)[C@@H](NC(=O)OC)C(C)C)cc3)N2c2ccc(C(C)(C)C)cc2)cc1)C(C)C` [CHEBI:85183], for which the EC50 was 14 pM in assay [1]; 5 pM in assay [2]; 4.3 pM in assay [3]; 19 pM in assay [4]; 1.7 pM in assay [5]; 3.2 pM in assay [6]. Also, the EC50 in assay [7] came out at 12 pM; in assay [8], 366 pM; in assay [9], 186 pM; in assay [10], 56 pM.
